Values joined by “and” are separate entries in the source; they are usually repeats but may differ in a detail not shown here. Equal values may be shown once. Inconclusive results and toxic doses are left out. Rule as the data show it: active = T/C of 150% or more; inactive = T/C below 125%.
System: L1210 leukemia ip in BDF1 mice, survival T/C
Assay: NCI In Vivo Anticancer Drug Screen. Data for tumor model L1210 Leukemia (intraperitoneal) in B6D2F1 (BDF1) mice
Settings: endpoint: mean survival time, higher = longer survival
Procedure, shortened: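 Transplantable tumor model; survival measured in treated vs vehicle control mice. Value = treated/control.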

[1] = dose: 100.0 mg/kg/injection, schedule: Q01DX009 (ip), vehicle: Klucel (hydroxypropylcellulose) (HPC)
[2] = dose: 100.0 mg/kg/injection, schedule: Q04DX003 (ip), vehicle: Klucel (hydroxypropylcellulose) (HPC)
[3] = dose: 200.0 mg/kg/injection, schedule: Q01DX009 (ip), vehicle: Klucel (hydroxypropylcellulose) (HPC)
[4] = dose: 200.0 mg/kg/injection, schedule: Q04DX003 (ip), vehicle: Klucel (hydroxypropylcellulose) (HPC)
[5] = dose: 400.0 mg/kg/injection, schedule: Q01DX009 (ip), vehicle: Klucel (hydroxypropylcellulose) (HPC)
[6] = dose: 400.0 mg/kg/injection, schedule: Q04DX003 (ip), vehicle: Klucel (hydroxypropylcellulose) (HPC)
[7] = dose: 100.0 mg/kg/injection, schedule: Q04DX002 (ip), vehicle: Klucel (hydroxypropylcellulose) (HPC)
[8] = dose: 200.0 mg/kg/injection, schedule: Q04DX002 (ip), vehicle: Klucel (hydroxypropylcellulose) (HPC)
[9] = dose: 400.0 mg/kg/injection, schedule: Q04DX002 (ip), vehicle: Klucel (hydroxypropylcellulose) (HPC)
[10] = dose: 100.0 mg/kg/injection, schedule: Q04DX003 (ip), vehicle: saline
[11] = dose: 200.0 mg/kg/injection, schedule: Q04DX003 (ip), vehicle: saline
[12] = dose: 400.0 mg/kg/injection, schedule: Q04DX003 (ip), vehicle: saline
[13] = dose: 100.0 mg/kg/injection, schedule: Q04DX002 (ip), vehicle: saline with Tween-80
[14] = dose: 100.0 mg/kg/injection, schedule: Q04DX003 (ip), vehicle: saline with Tween-80
[15] = dose: 200.0 mg/kg/injection, schedule: Q04DX003 (ip), vehicle: saline with Tween-80
[16] = dose: 400.0 mg/kg/injection, schedule: Q04DX003 (ip), vehicle: saline with Tween-80
[17] = dose: 100.0 mg/kg/injection, schedule: Q01DX009 (ip), vehicle: saline

Measured: T/C

CC(C)(C)C1CCC(NC(=O)c2ccccc2)CC1 (centres undefined)
inactive: [1] 108 % of control | [2] 102 % of control | [3] 109 % of control | [4] 98 % of control | [5] 86 % of control | [6] 100 % of control

O=S(=O)(F)c1cc(Cl)ccc1O
inactive: [7] 115 % of control | [8] 115 % of control | [9] 105 % of control

CCCCOc1ccccc1NC(=O)CCl
inactive: [10] 100 % of control | [11] 100 % of control | [12] 93 % of control

Oc1ccccc1C=NC1CCCCC1.Oc1ccccc1C=NC1CCCCC1.[Ni+2]
inactive: [2] 96 % of control | [10] 94 % of control | [4] 92 % of control | [11] 96 % of control | [6] 90 % of control

CSc1nc(/N=N/Nc2nc(SC)nn2C)n(C)n1
inactive: [13] 93 % of control | dose: 200.0 mg/kg/injection, schedule: Q04DX002 (ip), vehicle: saline with Tween-80 93 % of control | dose: 400.0 mg/kg/injection, schedule: Q04DX002 (ip), vehicle: saline with Tween-80 97 % of control

CCOc1n[n+]([O-])c(Cl)c(C)c1[N+](=O)[O-]
inactive: dose: 25.0 mg/kg/injection, schedule: Q04DX002 (ip), vehicle: saline with Tween-80 96 % of control | dose: 50.0 mg/kg/injection, schedule: Q04DX002 (ip), vehicle: saline with Tween-80 92 % of control | [13] 96 % of control

CCN(CC)Cc1cccc(Nc2cc(C)nc(/N=C(\N)Nc3ccc(Cl)c(Cl)c3)n2)c1
inactive: dose: 75.0 mg/kg/injection, schedule: Q01DX001 (ip), vehicle: other 98 % of control | dose: 150.0 mg/kg/injection, schedule: Q01DX001 (ip), vehicle: other 95 % of control | dose: 300.0 mg/kg/injection, schedule: Q01DX001 (ip), vehicle: other 95 % of control

Cn1c(=O)c2c(ncn2C)n(C)c1=O (tested in a mixture with another compound)
inactive: [14] 98 % of control | [15] 101 % of control | [16] 114 % of control

CCCCOC(=O)c1ccc(NC(=O)C(Cl)Cl)cc1
inactive: [10] 99 % of control | [11] 89 % of control | [12] 89 % of control

O=c1oc(-c2ccco2)nc2ccccc12
inactive: [1] 101 % of control | [2] 102 % of control | [3] 110 % of control | [4] 95 % of control | [6] 93 % of control

Cc1cc(O)c([N+](=O)[O-])c(=O)o1 (tested in a mixture with another compound)
inactive: [7] 108 % of control | [8] 97 % of control | [9] 87 % of control

CSc1ccc(NC(=O)Nc2cc(C)c(C)cc2C)cc1
inactive: dose: 100.0 mg/kg/injection, schedule: Q01DX009 (ip), vehicle: other 86 % of control | dose: 200.0 mg/kg/injection, schedule: Q01DX009 (ip), vehicle: other 93 % of control and 90 % of control | dose: 400.0 mg/kg/injection, schedule: Q01DX009 (ip), vehicle: other 93 % of control and 106 % of control

O=C1CSC(=S)N1/N=C/c1c[nH]c2ccc(Br)cc12
inactive: dose: 75.0 mg/kg/injection, schedule: Q01DX001 (ip), vehicle: carboxymethylcellulose (CMC) 100 % of control | dose: 150.0 mg/kg/injection, schedule: Q01DX001 (ip), vehicle: carboxymethylcellulose (CMC) 97 % of control

CC(=O)Nc1cc([N+](=O)[O-])ccc1C
inactive: [1] 100 % of control | [3] 105 % of control

CCCCCCCCCCCCCNCCCCCCCCCCCCC
inactive: [10] 96 % of control | [11] 92 % of control | [12] 96 % of control

O=C1NC(=O)C2(N1)c1ccccc1-c1ccccc12
inactive: [1] 95 % of control | [3] 90 % of control | [5] 95 % of control

CCCCCCC/C(=N\N=C(N)N)c1ccc(O)cc1
inactive: dose: 15.0 mg/kg/injection, schedule: Q01DX Z (ip), vehicle: carboxymethylcellulose (CMC) 93 % of control | dose: 15.0 mg/kg/injection, schedule: Q01DX Z (oral), vehicle: carboxymethylcellulose (CMC) 117 % of control | dose: 30.0 mg/kg/injection, schedule: Q01DX Z (ip), vehicle: carboxymethylcellulose (CMC) 87 % of control | dose: 30.0 mg/kg/injection, schedule: Q01DX Z (oral), vehicle: carboxymethylcellulose (CMC) 106 % of control | dose: 60.0 mg/kg/injection, schedule: Q01DX Z (oral), vehicle: carboxymethylcellulose (CMC) 97 % of control and 103 % of control | dose: 120.0 mg/kg/injection, schedule: Q01DX Z (oral), vehicle: carboxymethylcellulose (CMC) 112 % of control and 90 % of control | dose: 240.0 mg/kg/injection, schedule: Q01DX Z (oral), vehicle: carboxymethylcellulose (CMC) 94 % of control and 95 % of control | dose: 480.0 mg/kg/injection, schedule: Q01DX Z (oral), vehicle: carboxymethylcellulose (CMC) 88 % of control and 90 % of control

Brc1ccc(N=Cc2ccc3c(c2)OCO3)cc1
inactive: dose: 100.0 mg/kg/injection, schedule: Q04DX003 (ip), vehicle: gum acacia 96 % of control | dose: 200.0 mg/kg/injection, schedule: Q04DX003 (ip), vehicle: gum acacia 95 % of control | dose: 400.0 mg/kg/injection, schedule: Q04DX003 (ip), vehicle: gum acacia 90 % of control

Nc1ccc(S(=O)(=O)NCc2nccs2)cc1
inactive: dose: 5.0 mg/kg/injection, schedule: Q01DX001 (ip), vehicle: saline 102 % of control | dose: 10.0 mg/kg/injection, schedule: Q01DX001 (ip), vehicle: saline 100 % of control | dose: 20.0 mg/kg/injection, schedule: Q01DX001 (ip), vehicle: saline 100 % of control | dose: 40.0 mg/kg/injection, schedule: Q01DX001 (ip), vehicle: saline 102 % of control | dose: 80.0 mg/kg/injection, schedule: Q01DX001 (ip), vehicle: saline 100 % of control

CCOC(=O)NCc1ccccc1
inactive: [1] 101 % of control | [2] 98 % of control | [3] 106 % of control | [4] 95 % of control | [5] 95 % of control | [6] 101 % of control

CC(C)OC(=S)S
inactive: dose: 25.0 mg/kg/injection, schedule: Q01DX009 (ip), vehicle: saline 100 % of control | dose: 50.0 mg/kg/injection, schedule: Q01DX009 (ip), vehicle: saline 94 % of control | [17] 93 % of control

C1=C(c2ccccc2)c2ccccc2C1(c1ccccc1)c1ccccc1
inactive: [14] 97 % of control | [15] 94 % of control | [16] 94 % of control

COc1ccc(OC)c(NC(=O)Nc2ccc(F)cc2)c1
inactive: dose: 12.5 mg/kg/injection, schedule: Q01DX001 (ip), vehicle: carboxymethylcellulose (CMC) 98 % of control | dose: 12.5 mg/kg/injection, schedule: Q01DX009 (ip), vehicle: carboxymethylcellulose (CMC) 92 % of control and 94 % of control | dose: 12.5 mg/kg/injection, schedule: Q04DX002 (ip), vehicle: carboxymethylcellulose (CMC) 110 % of control | dose: 12.5 mg/kg/injection, schedule: Q04DX003 (ip), vehicle: carboxymethylcellulose (CMC) 95 % of control | dose: 25.0 mg/kg/injection, schedule: Q01DX001 (ip), vehicle: carboxymethylcellulose (CMC) 103 % of control | dose: 25.0 mg/kg/injection, schedule: Q01DX009 (ip), vehicle: carboxymethylcellulose (CMC) 95 % of control and 99 % of control | dose: 25.0 mg/kg/injection, schedule: Q04DX002 (ip), vehicle: carboxymethylcellulose (CMC) 98 % of control and 100 % of control | dose: 25.0 mg/kg/injection, schedule: Q04DX003 (ip), vehicle: carboxymethylcellulose (CMC) 91 % of control | dose: 50.0 mg/kg/injection, schedule: Q01DX001 (ip), vehicle: carboxymethylcellulose (CMC) 95 % of control | dose: 50.0 mg/kg/injection, schedule: Q01DX009 (ip), vehicle: carboxymethylcellulose (CMC) 92 % of control and 89 % of control | dose: 50.0 mg/kg/injection, schedule: Q04DX002 (ip), vehicle: carboxymethylcellulose (CMC) 97 % of control | dose: 50.0 mg/kg/injection, schedule: Q04DX003 (ip), vehicle: carboxymethylcellulose (CMC) 93 % of control

CN(C)C(=S)Nc1ccccc1
inactive: [17] 114 % of control | dose: 130.0 mg/kg/injection, schedule: Q01DX009 (ip), vehicle: Klucel (hydroxypropylcellulose) (HPC) 98 % of control | [3] 103 % of control

Nc1nc(N)nc(NC(=O)CNCc2ccccc2)n1
inactive: [14] 101 % of control and 105 % of control | [15] 97 % of control and 107 % of control | [16] 97 % of control and 102 % of control

Reference: PubChem BioAssay AID248 (DTP/NCI, 2004)
